{"source": "ChEMBL document CHEMBL1201862", "about": "“PubChem BioAssay data set” (2004)", "key": {"[1]": {"molecular_target": "C-C chemokine receptor type 6 (Homo sapiens, UniProt P51684)", "sequence (P51684 whole entry)": "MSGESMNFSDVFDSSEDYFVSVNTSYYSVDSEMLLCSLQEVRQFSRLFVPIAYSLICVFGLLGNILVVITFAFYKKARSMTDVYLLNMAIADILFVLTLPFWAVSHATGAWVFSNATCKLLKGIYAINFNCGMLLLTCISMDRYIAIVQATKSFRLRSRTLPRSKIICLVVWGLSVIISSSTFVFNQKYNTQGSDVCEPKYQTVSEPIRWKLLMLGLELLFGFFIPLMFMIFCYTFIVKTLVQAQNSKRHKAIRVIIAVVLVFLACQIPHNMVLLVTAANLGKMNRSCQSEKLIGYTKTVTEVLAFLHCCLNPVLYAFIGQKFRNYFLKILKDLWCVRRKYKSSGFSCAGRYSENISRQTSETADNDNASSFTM", "assay": "CCR6 receptor antagonists, dose response, cell-based, luminescent beta-arrestin readout (AID 504728)", "assay_type": "functional"}, "[2]": {"assay": "ZM109 Env clade C HIV-1 fusion inhibitors, dose response, HeLa effector, CEM target cells, luciferase, cherry-pick (AID 652058)", "assay_type": "functional, cell-based"}, "[3]": {"assay": "THP-1 cell cytotoxicity, dose response, cytotoxicity control for non-replicating M. tuberculosis project (AID 489025)", "assay_type": "functional"}, "[4]": {"assay": "Fluorescence-based cell-based high throughput dose response assay for inhibitors of the interaction of nucleotide-binding oligomerization domain containing 2 (NOD2) and the receptor-interacting serine-threonine kinase 2 (RIPK2).", "assay_type": "functional", "conditions": "Homo sapiens"}, "Protein Rev": {"molecular_target": "Protein Rev (Human immunodeficiency virus type 1 group M subtype B (isolate HXB2)(HIV-1), UniProt P04618)", "sequence (P04618 whole entry)": "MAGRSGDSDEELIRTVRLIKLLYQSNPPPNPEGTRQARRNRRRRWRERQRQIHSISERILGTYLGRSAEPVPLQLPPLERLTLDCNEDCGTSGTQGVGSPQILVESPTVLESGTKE", "assay": "inhibitors of Rev binding to RRE RNA, dose response, biochemical, fluorescence polarization, HIV-1 (AID 434976)", "parameters": "species or system Human immunodeficiency virus 1"}, "[5]": {"molecular_target": "T1, Zinc finger protein mex-5 (Caenorhabditis elegans, UniProt Q9XUB2)", "T1 sequence (Q9XUB2 whole entry)": "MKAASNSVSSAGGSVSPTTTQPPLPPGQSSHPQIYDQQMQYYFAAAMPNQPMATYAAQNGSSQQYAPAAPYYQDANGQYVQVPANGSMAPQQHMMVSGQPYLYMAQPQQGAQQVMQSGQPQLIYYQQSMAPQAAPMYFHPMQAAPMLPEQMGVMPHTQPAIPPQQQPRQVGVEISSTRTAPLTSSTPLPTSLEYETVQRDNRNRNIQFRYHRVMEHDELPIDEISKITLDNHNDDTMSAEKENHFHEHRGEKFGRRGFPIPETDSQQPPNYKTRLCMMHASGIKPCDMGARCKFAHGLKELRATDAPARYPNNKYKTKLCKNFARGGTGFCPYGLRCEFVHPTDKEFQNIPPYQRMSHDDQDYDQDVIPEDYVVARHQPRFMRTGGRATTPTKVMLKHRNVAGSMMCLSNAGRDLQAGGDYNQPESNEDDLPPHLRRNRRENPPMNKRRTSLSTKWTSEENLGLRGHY", "assay": "MEX-5/TCR-2 RNA interaction inhibitors, dose response, biochemical, C. elegans, fluorescence polarization (AID 1960)"}, "Hexokinase-1": {"molecular_target": "T2, Hexokinase-1 (Homo sapiens, UniProt P19367)", "T2 sequence (P19367 whole entry)": "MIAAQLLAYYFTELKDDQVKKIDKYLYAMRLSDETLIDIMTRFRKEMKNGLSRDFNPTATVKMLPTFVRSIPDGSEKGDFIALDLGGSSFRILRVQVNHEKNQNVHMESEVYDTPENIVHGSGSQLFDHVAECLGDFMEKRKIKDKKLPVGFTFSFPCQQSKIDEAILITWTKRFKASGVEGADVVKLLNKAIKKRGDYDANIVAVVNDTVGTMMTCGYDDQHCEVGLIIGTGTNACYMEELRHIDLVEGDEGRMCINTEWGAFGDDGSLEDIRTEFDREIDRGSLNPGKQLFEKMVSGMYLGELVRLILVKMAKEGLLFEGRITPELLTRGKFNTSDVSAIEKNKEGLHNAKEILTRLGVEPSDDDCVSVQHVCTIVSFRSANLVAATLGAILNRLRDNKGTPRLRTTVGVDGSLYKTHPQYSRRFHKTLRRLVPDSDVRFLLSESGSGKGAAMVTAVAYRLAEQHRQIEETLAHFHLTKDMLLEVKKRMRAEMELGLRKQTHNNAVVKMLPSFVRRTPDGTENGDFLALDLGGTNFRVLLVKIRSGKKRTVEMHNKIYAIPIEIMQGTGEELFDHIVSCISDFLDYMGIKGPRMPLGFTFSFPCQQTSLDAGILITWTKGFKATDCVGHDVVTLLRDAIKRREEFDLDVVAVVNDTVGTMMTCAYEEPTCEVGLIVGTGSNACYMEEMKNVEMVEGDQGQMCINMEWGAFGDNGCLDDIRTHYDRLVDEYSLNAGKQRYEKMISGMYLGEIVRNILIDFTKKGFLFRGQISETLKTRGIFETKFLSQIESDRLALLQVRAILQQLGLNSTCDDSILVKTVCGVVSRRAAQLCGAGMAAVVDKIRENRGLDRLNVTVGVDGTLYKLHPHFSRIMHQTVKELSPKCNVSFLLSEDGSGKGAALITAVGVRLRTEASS", "assay": "hexokinase 1 activators, dose response, selectivity assay for HKDC1 activator project, biochemical (AID 504762)", "assay_type": "functional"}, "[6]": {"molecular_target": "T3, Calpain-2 catalytic subunit (Sus scrofa, UniProt P43367)", "T3 sequence (P43367 whole entry)": "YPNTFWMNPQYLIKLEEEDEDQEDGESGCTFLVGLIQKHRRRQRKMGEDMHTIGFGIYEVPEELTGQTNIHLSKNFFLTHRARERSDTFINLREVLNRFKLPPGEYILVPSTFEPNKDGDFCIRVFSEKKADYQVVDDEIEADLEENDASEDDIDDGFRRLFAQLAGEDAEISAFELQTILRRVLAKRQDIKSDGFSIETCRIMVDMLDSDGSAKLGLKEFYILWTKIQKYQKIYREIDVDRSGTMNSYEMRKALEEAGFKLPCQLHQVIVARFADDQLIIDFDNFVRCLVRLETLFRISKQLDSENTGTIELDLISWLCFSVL", "assay": "pig calpain II inhibitor potency, dose response, biochemical, fluorogenic peptide substrate (AID 1420)", "assay_type": "functional"}, "[7]": {"molecular_target": "Calcium/calmodulin-dependent protein kinase type II subunit alpha (Homo sapiens, UniProt Q9UQM7)", "sequence (Q9UQM7 whole entry)": "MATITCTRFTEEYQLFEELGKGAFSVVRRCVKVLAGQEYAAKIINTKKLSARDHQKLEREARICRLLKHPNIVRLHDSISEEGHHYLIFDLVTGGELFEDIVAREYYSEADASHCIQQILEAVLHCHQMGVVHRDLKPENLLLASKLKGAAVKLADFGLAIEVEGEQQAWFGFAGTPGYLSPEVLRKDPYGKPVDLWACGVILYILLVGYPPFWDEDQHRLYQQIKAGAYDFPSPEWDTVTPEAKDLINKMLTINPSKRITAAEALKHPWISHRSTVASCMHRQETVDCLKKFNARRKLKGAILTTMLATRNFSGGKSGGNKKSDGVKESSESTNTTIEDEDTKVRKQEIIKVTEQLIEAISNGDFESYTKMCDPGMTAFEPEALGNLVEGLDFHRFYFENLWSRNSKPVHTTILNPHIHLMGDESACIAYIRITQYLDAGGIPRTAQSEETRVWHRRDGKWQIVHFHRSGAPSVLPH", "assay": "Navigating the Kinome. Panel member name: CAMK2A", "assay_type": "functional"}, "LIM domain kinase 1": {"molecular_target": "LIM domain kinase 1 (Homo sapiens, UniProt P53667)", "sequence (P53667 whole entry, the tested form may be a part)": "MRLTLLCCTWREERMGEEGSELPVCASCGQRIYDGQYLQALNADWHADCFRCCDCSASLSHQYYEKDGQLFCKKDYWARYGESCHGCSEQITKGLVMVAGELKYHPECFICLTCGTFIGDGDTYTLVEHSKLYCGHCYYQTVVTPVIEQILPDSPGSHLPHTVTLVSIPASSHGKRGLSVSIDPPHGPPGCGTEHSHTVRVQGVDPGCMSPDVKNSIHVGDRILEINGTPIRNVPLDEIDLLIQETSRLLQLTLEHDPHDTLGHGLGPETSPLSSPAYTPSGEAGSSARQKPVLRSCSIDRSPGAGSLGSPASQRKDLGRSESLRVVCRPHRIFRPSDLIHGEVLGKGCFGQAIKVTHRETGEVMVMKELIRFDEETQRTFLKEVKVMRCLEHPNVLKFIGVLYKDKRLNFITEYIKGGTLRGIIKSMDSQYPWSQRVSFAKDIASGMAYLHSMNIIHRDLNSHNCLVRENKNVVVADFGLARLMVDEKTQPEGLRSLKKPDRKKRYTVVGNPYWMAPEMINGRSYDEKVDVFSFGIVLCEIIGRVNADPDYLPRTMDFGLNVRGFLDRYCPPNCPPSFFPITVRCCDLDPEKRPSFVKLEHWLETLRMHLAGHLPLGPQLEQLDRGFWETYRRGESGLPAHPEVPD", "assay": "Navigating the Kinome. Panel member name: LIMK1", "assay_type": "functional"}, "[8]": {"molecular_target": "Serine/threonine-protein kinase 17A (Homo sapiens, UniProt Q9UEE5)", "sequence (Q9UEE5 whole entry)": "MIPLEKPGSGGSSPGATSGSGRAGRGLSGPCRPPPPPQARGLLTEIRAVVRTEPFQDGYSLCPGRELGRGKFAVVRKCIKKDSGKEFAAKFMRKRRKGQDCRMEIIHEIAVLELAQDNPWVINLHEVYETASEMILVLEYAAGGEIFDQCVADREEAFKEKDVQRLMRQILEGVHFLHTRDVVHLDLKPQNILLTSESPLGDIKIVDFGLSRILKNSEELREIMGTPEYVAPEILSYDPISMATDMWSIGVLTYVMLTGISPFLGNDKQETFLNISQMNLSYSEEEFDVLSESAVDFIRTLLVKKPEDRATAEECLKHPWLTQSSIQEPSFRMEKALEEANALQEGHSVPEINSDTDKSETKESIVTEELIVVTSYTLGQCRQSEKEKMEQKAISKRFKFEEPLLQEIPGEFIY", "assay_type": "functional"}, "[9]": {"molecular_target": "MAP kinase-interacting serine/threonine-protein kinase 2 (Homo sapiens, UniProt Q9HBH9)", "sequence (Q9HBH9 whole entry)": "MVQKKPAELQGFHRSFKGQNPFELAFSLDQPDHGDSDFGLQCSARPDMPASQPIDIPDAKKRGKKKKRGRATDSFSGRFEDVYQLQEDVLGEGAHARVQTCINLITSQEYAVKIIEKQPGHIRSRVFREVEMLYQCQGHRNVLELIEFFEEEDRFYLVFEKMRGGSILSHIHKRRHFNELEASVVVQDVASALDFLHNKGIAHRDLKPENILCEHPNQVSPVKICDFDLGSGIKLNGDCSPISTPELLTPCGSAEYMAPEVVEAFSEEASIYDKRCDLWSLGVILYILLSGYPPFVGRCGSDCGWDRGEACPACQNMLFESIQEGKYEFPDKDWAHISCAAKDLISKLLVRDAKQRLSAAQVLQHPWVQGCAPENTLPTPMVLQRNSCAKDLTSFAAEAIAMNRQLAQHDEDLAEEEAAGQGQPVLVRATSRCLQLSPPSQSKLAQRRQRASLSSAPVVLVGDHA", "assay_type": "functional"}, "[10]": {"molecular_target": "Ribosomal protein S6 kinase alpha-3 (Homo sapiens, UniProt P51812)", "sequence (P51812 whole entry)": "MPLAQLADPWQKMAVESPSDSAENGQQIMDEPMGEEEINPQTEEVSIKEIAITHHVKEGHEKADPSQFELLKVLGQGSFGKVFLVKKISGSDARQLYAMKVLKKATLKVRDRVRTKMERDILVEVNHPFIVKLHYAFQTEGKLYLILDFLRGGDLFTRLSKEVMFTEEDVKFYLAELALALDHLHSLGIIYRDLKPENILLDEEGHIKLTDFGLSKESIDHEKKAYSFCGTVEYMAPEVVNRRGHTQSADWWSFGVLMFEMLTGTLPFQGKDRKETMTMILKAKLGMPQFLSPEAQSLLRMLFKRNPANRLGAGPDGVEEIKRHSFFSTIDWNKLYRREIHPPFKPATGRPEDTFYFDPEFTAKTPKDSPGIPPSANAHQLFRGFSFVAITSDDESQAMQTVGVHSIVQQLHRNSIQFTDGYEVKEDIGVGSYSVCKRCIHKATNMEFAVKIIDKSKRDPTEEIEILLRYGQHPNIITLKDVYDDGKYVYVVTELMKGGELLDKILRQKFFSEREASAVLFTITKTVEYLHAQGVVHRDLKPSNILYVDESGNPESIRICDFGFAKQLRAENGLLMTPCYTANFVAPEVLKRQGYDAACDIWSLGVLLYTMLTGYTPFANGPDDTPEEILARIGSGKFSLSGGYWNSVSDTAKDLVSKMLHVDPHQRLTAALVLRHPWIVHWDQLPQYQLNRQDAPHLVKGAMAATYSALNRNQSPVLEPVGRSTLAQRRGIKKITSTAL", "assay_type": "functional"}, "[11]": {"molecular_target": "Serine/threonine-protein kinase Chk2 (Homo sapiens, UniProt O96017)", "sequence (O96017 whole entry)": "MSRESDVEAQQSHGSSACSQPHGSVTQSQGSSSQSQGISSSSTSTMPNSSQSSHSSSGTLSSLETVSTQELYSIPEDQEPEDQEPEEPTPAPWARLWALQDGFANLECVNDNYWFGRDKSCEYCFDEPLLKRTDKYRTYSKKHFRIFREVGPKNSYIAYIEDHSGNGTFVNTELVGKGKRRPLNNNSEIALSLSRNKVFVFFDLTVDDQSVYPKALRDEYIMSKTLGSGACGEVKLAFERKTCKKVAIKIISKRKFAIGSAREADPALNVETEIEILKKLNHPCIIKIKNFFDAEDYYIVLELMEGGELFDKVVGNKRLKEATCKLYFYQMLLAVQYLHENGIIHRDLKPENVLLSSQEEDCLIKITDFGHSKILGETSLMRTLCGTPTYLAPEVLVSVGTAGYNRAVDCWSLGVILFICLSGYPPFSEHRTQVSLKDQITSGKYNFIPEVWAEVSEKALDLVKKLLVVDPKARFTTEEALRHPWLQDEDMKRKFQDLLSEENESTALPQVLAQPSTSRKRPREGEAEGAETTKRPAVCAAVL", "assay_type": "functional"}}, "note": "The source made the active and inactive calls.", "data": [{"compound": "Cc1c(/N=C2\\C=CC(=O)c3ccccc32)c(=O)n(-c2ccccc2)n1C", "values": [{"measurement": "IC50", "setting": "[1]", "result": "> 66.6 µM (inactive)"}]}, {"compound": "CCOC(=O)c1c2c(n(Cc3ccccc3)c1C)C(=O)C(=O)c1ccccc1-2", "values": [{"measurement": "AC50", "setting": "[2]", "result": "10.9 µM (active)"}]}, {"compound": "COC(=O)CCS(=O)(=O)c1nc(-c2ccccc2)cc(C(F)(F)F)n1", "values": [{"measurement": "CC50", "setting": "[3]", "result": "25.2 µM (active)"}, {"measurement": "IC50", "setting": "[4]", "result": "3.08 µM (active)"}]}, {"compound": "O=C(O)c1ccc2c3c(ncnc13)-c1ccccc1C2=O", "values": [{"measurement": "IC50", "setting": "Protein Rev", "result": "9.78 µM (active)"}, {"measurement": "EC50", "setting": "[5]", "result": "31.9 µM (active)"}]}, {"compound": "O=C(O)c1ccc(NC2=C(Cl)C(=O)c3ccccc3C2=O)cc1", "values": [{"measurement": "EC50", "setting": "Hexokinase-1", "result": "10.6 µM (active)"}, {"measurement": "IC50", "setting": "[6]", "result": "10.8 µM (not active)"}]}, {"compound": "COc1cc2c(cc1F)C(c1ccccc1Cl)=Nc1c(n[nH]c1C)N2", "note": "[RG-1530]", "values": [{"measurement": "Ki", "setting": "[7]", "result": "> 6.31 µM (inactive)"}, {"measurement": "Ki", "setting": "LIM domain kinase 1", "result": "0.501 µM (active)"}]}, {"compound": "Cc1ccc2nccc(NC(=O)Nc3cccc(C(F)(F)F)n3)c2c1", "values": [{"measurement": "Ki", "setting": "[8]", "result": "> 3.98 µM (inactive)"}, {"measurement": "Ki", "setting": "[9]", "result": "> 10 µM (inactive)"}, {"measurement": "Ki", "setting": "[10]", "result": "> 5.01 µM (inactive)"}, {"measurement": "Ki", "setting": "[11]", "result": "> 1.58 µM (inactive)"}]}]}
